Measurements taken from patent US7759326B2, “Aminophosphonic acid derivative, salt thereof, and modulator of S1P receptor” (Kyorin Pharmaceutical Co., Ltd., priority 2003, dated 2010).
Counter-ions that a name gives are not always drawn.

How the values were obtained:
hS1P1 receptors = molecular target: T1, hS1P1 receptors (Homo sapiens, UniProt P21453); assay: Intracellular Ca2+ mobilization in CHO cells expressing human S1P receptors (hS1P1); type: cell-based; details: read-out: S1P1 (EC50 class, intracellular Ca2+ mobilization)
T1 construct: expressed in transfected cells; host or cells: CHO cells (Geneticin-selected)
T1 sequence (P21453 whole entry): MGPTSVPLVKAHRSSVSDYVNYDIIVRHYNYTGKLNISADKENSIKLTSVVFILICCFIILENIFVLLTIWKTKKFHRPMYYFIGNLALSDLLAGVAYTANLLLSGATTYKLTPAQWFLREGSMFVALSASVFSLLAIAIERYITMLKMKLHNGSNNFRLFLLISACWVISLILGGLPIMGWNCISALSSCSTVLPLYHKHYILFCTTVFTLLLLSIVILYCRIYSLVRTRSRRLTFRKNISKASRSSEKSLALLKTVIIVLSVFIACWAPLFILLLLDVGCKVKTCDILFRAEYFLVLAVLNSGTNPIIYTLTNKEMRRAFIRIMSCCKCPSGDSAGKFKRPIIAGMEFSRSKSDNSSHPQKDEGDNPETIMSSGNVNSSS
Procedure: (§1) Test for the Ability of Test Compounds to Induce Intracellular Ca^2+ Mobilization in Cells Expressing Human S1P (Sphingosine-1-Phosphate) Receptors
(§2) CHO cells expressing human S1P receptors (i.e., CHO cells expressing hS1P1 receptors or hS1P3 receptors) were subcultured on Ham's F-12 medium supplemented with 10% fetal bovine serum and 200 μg/mL Geneticin. The cells were seeded on a 96-well black clear bottom plate (COSTAR) at 4×10^4 cells/well and were cultured overnight at 37° C. in 5% CO2. A fluorescent reagent that emits fluorescence upon binding to Ca^2+ (Calcium Screening Kit (DOJINDO)) was added to the culture and the cells were further cultured for 60 min at 37° C. in 5% CO2. After culturing, microplate spectrofluorometer (FLEX station, MOLECULAR DEVICE) was used to measure the fluorescence intensity at an excitation wavelength of 485 nm and a detection wavelength of 525 nm. S1P or a test compound adjusted with cultural medium to a concentration 10 times higher than the final concentration (final DMSO concentration=0.1%). Each test compound solution was added 18 sec. after beginning of the measurement of fluorescence. The fluorescence intensity was measured every 1.5 sec for 100 sec. For each test compound, the difference between the maximum fluorescence intensity and the minimum fluorescence intensity (i.e., increase in fluorescence) was determined from the measurements. The rate of fluorescence increase (%) for each test compound was calculated by the difference (100%) of the fluorescence increase between solvent only and S1P (10^−6M). Using this value as an index of the ability of the test compound to induce intracellular Ca^2+ mobilization, EC50 was determined by PRISM software (GraphPad).

hS1P3 receptors = molecular target: T2, hS1P3 receptors (Homo sapiens, UniProt Q99500); assay: Intracellular Ca2+ mobilization in CHO cells expressing human S1P receptors (hS1P3); type: cell-based; details: read-out: S1P3 (EC50 class, intracellular Ca2+ mobilization)
T2 construct: expressed in transfected cells; host or cells: CHO cells (Geneticin-selected)
T2 sequence (Q99500 whole entry): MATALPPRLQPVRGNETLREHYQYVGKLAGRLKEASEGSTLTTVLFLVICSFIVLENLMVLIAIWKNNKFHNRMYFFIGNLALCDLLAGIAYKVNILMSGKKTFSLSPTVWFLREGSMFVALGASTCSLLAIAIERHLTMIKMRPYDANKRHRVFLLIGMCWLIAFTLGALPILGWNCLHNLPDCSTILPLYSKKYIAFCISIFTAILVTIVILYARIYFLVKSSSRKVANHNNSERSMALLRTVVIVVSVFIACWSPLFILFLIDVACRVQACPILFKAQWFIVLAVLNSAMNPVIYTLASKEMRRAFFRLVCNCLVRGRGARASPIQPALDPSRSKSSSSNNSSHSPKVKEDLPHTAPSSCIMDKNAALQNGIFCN
Procedure: as §1, §2

[1] = test system: host vs. graft rejection in mice; assay: Inhibitory effects on host vs. graft rejection in mice (right popliteal lymph node weight); type: in vivo, C3H/HeN mice; details: Mus musculus, Dose 0.03 mg/kg
Procedure: Inhibitory Effects of Test Compounds on Host Vs. Graft Rejection in Mice
This experiment was performed according to the method described in Transplantation 55(3) (1993): 578-591. Spleens were collected from 6 to 16 week old male BALB/c mice (CHARLES RIVER JAPAN). The spleens were placed in an RPMI-1640 medium (SIGMA) and were gently pressed between two slide glasses and then passed through a cell strainer (70 μm, Falcon) to form a cell suspension. The suspension was then centrifuged and the supernatant was discarded. An ammonium chloride-Tris isotonic buffer was added to the suspension to lyse erythrocytes. The cells were then centrifuged three times in RPMI-1640 medium for washing and were resuspended in an RPMI-1640 medium. To this suspension, mitomycin C (KYOWA HAKKO KOGYO Co., Ltd.) was added to a final concentration of 25 μg/mL and the suspension was incubated for 30 minutes at 37° C. in a 5% CO2 atmosphere. The cells were centrifuged three times in RPMI-1640 medium for washing and were resuspended in an RPMI-1640 medium so that the medium would contain 2.5×10^8 cells/mL. This suspension served as a “stimulation cell suspension.” Using a 27 G needle with a microsyringe (Hamilton), 20 μL (5×10^6 cells/mouse) of the stimulation cell suspension was subcutaneously injected into the right hind footpad of 6 to 8 week old male C3H/HeN mice (CLEA JAPAN). Normal control group was injected with RPMI-1640 medium alone. 4 days after the injection, right popliteal lymph nodes were collected and were weighed on a Mettler AT201 electronic scale (METTLER TOLEDO Co., Ltd.). Each animal was intraperitoneally administered a test compound once a day for four consecutive days starting on the day of the injection of the stimulation cells (i.e., total of 4 times). Control groups were administered the same vehicle as that used in the preparation of each test compound. The inhibition (%) was determined using the following formula {[Weight of right popliteal lymph nodes of positive control group]−[Weight of right popliteal lymph nodes of test compound group]×100}/{[Weight of right popliteal lymph nodes of positive control group]−[Weight of right popliteal lymph nodes of normal control group]} Formula 1

Row | Structure (SMILES) | EC50 (hS1P1 receptors) [nM] | EC50 (hS1P3 receptors) [nM] | melting point [°C] | inhibition in vivo at 0.03 mg/kg [1] [%]
1 | CC(N)(/C=C/P(=O)(O)O)CCCc1ccc(Sc2cccc(OCc3ccccc3)c2)cc1Cl (racemic) [Example 261, 3-amino-6-[4-(3-benzyloxyphenylthio)-2-chlorophenyl]-3-methyl-1-hexenylphosphonic acid] | 100 to 1000 | ≥ 1000 | 243 to 245 | –
2 | COP(=O)(OC)OCC(C)(CCc1ccc(Sc2cccc(OCc3ccccc3)c2)cc1Cl)NC(=O)OC(C)(C)C (single isomer, unassigned; (+)) [Example 247, (+)-4-[4-(3-benzyloxyphenylthio)-2-chlorophenyl]-2-t-butoxycarbonylamino-1-dimethoxyphosphoryloxy-2-methylbutane] | – | – | – | 63
3 | CC(N)(CCc1ccc(Sc2cccc(OCc3ccccc3)c2)cc1Cl)COP(=O)(O)O (single isomer, unassigned; (+)) [Example 249, (+)-2-amino-4-[4-(3-benzyloxyphenylthio)-2-chlorophenyl]-2-methylbutylphosphonate monoester] | 10 to 100 | < 10 | – | –
4 | CC(N)(CCc1ccc(Sc2cccc(OCc3ccccc3)c2)cc1Cl)COP(=O)(O)O (single isomer, unassigned; (-)) [Example 250, (−)-2-amino-4-[4-(3-benzyloxyphenylthio)-2-chlorophenyl]-2-methylbutylphosphonate monoester] | 100 to 1000 | ≥ 1000 | – | –
5 | CC(N)(CCCc1ccc(Sc2cccc(OCc3ccccc3)c2)cc1Cl)CCP(=O)(O)O (stereo not shown) [Example 260, 3-amino-6-[4-(3-benzyloxyphenylthio)-2-chlorophenyl]-3-methylhexylphosphonic acid] | 10 to 100 | 100 to 1000 | 195 to 197 | –
6 | NC(/C=C/P(=O)(O)O)(CO)CCCc1ccc(Sc2cccc(OCc3ccccc3)c2)cc1Cl (stereo not shown) [Example 263, 3-amino-[4-(3-benzyloxyphenylthio)-2-chlorophenyl]-3-hydroxymethyl-1-hexenylphosphonic acid] | < 10 | 100 to 1000 | 243 to 246 | –
7 | NC(CO)(CCCc1ccc(Sc2cccc(OCc3ccccc3)c2)cc1Cl)CCP(=O)(O)O (stereo not shown) [Example 265, 3-amino-6-[4-(3-benzyloxyphenylthio)-2-chlorophenyl]-3-hydroxymethylhexylphosphonic acid] | < 10 | 100 to 1000 | 193 to 196 | –
8 | NC(CO)(CCc1ccc(Sc2cccc(OCc3ccccc3)c2)cc1Cl)CCP(=O)(O)O (stereo not shown) [Example 269, 3-amino-5-[4-(3-benzyloxyphenylthio)-2-chlorophenyl]-3-hydroxymethylpentylphosphonic acid] | 10 to 100 | ≥ 1000 | 205 to 208 | –
9 | CCCC(N)(/C=C/P(=O)(OC)OC)CCCc1ccc(Sc2cccc(OCc3ccccc3)c2)cc1Cl (stereo not shown) [Example 280, Dimethyl 3-amino-6-[4-(3-benzyloxyphenylthio)-2-chlorophenyl]-3-propyl-1-hexenylphosphonate hydrochloride] | 100 to 1000 | 100 to 1000 | – | –
10 | CCCC(N)(/C=C/P(=O)(O)O)CCCc1ccc(Sc2cccc(OCc3ccccc3)c2)cc1Cl (stereo not shown) [Example 283, 3-amino-6-[4-(3-benzyloxyphenylthio)-2-chlorophenyl]-3-propyl-1-hexenylphosphonic acid] | 10 to 100 | 10 to 100 | – | –
11 | NC(CO)(CCCCc1ccc(Sc2cccc(OCc3ccccc3)c2)cc1Cl)CCP(=O)(O)O (stereo not shown) [Example 289, 3-amino-[4-(3-benzyloxyphenylthio)-2-chlorophenyl]-3-hydroxymethylheptylphosphonic acid] | – | – | 180 to 183 | –
12 | NC(CO)(CCCc1ccc(Sc2cccc(OCc3ccccc3)c2)cc1Cl)C(O)C(F)(F)P(=O)(O)O (stereo not shown) [Example 293, 3-amino-6-[4-(3-benzyloxyphenylthio)-2-chlorophenyl]-1,1-difluoro-2-hydroxy-3-hydroxymethylhexylphosphonic acid] | 100 to 1000 | 100 to 1000 | – | –
13 | NC(CO)(CCCc1ccc(Oc2cccc(C(F)(F)F)c2)cc1Cl)CCP(=O)(O)O (stereo not shown) [Example 296, 3-amino-6-[2-chloro-4-(3-trifluoromethylphenoxy)phenyl]-3-hydroxymethylhexylphosphonic acid] | 10 to 100 | ≥ 1000 | – | –
14 | NC(CO)(CCCc1ccc(Sc2cccc(C(F)(F)F)c2)cc1Cl)COP(=O)(O)O (stereo not shown) [Example 299, 2-amino-5-[2-chloro-4-(3-trifluoromethylphenylthio)phenyl]-2-hydroxymethylpentylphosphonate monoester] | 10 to 100 | ≥ 1000 | – | –
15 | NC(CO)(CCc1ccc(Sc2ccc(OCc3ccccc3)cc2)cc1Cl)CCP(=O)(O)O (stereo not shown) [Example 308, 3-amino-5-[4-(4-benzyloxyphenylthio)-2-chlorophenyl]-3-hydroxymethylpentylphosphonic acid] | 100 to 1000 | ≥ 1000 | – | –

The next lines start with results.

Row | EC50 (hS1P1 receptors) [nM] | EC50 (hS1P3 receptors) [nM] | melting point [°C] | Structure (SMILES) | inhibition in vivo at 0.03 mg/kg [1] [%]
16 | 10 to 100 | 100 to 1000 | 200 to 203 | CC(N)(CCCc1ccc(Sc2cccc(OCc3ccccc3)c2)cc1Cl)COP(=O)(O)O (single isomer, unassigned; (-)) [Example 240, (−)-2-amino-5-[4-(3-benzyloxyphenylthio)-2-chlorophenyl]-2-methylpentylphosphonate monoester] | –
17 | 100 to 1000 | 100 to 1000 | 285 to 288 | NC(/C=C(/F)P(=O)(O)O)CCc1ccc(Sc2cccc(OCc3ccccc3)c2)cc1Cl (stereo not shown) [Example 253, (Z)-3-amino-5-[4-(3-benzyloxyphenylthio)-2-chlorophenyl]-1-fluoro-1-pentenylphosphonic acid] | –
18 | 10 to 100 | ≥ 1000 | 288 to 290 | NC(/C=C(\F)P(=O)(O)O)CCc1ccc(Sc2cccc(OCc3ccccc3)c2)cc1Cl (stereo not shown) [Example 254, (E)-3-amino-5-[4-(3-benzyloxyphenylthio)-2-chlorophenyl]-1-fluoro-1-pentenylphosphonic acid] | –
19 | < 10 | ≥ 1000 | 245 to 248 | NC(/C=C/P(=O)(O)O)(CO)CCc1ccc(Sc2cccc(OCc3ccccc3)c2)cc1Cl (stereo not shown) [Example 267, 3-amino-5-[4-(3-benzyloxyphenylthio)-2-chlorophenyl]-3-hydroxymethyl-1-pentenylphosphonic acid] | –
20 | 10 to 100 | 100 to 1000 | – | CCCC(N)(CCCc1ccc(Sc2cccc(OCc3ccccc3)c2)cc1Cl)CCP(=O)(O)O (stereo not shown) [Example 284, 3-amino-6-[4-(3-benzyloxyphenylthio)-2-chlorophenyl]-3-propylhexylphosphonic acid] | –
21 | 10 to 100 | ≥ 1000 | 98 to 101 | Cl.NC(CO)(CCCc1ccc(Sc2cccc(OCc3ccccc3)c2)cc1Cl)CP(=O)(O)O (stereo not shown) [Example 286, 2-amino-5-[4-(3-benzyloxyphenylthio)-2-chlorophenyl]-2-hydroxymethylpentylphosphonate hydrochloride] | –
22 | < 10 | 10 to 100 | 258 to 260 | NC(/C=C/P(=O)(O)O)(CO)CCCCc1ccc(Sc2cccc(OCc3ccccc3)c2)cc1Cl (stereo not shown) [Example 290, 3-amino-[4-(3-benzyloxyphenylthio)-2-chlorophenyl]-3-hydroxymethyl-1-heptenylphosphonic acid] | –
23 | 10 to 100 | ≥ 1000 | – | NC(CO)(CCCc1ccc(Oc2cccc(C(F)(F)F)c2)cc1Cl)COP(=O)(O)O (stereo not shown) [Example 300] | –
